# Data from ChEMBL document CHEMBL3885861, “Open TG-GATES”.
# Species on record: Rattus norvegicus
# Test: Open TG-GATES - Regimen: Daily Repeat
# Type: toxicity, organism-based, Sprague-Dawley
# Set-up: regimen Daily Repeat, gender Male, age 6 weeks
# Conditions: in vivo, po, 75 mg/kg, route gavage, dose level Low; for APTT / Bas / Eos / Fbg / Hb / Ht / Lym / MCH / MCHC / MCV / Mono / Neu / PT / Plat / RBC / Ret / WBC: tissue Blood; for KIDNEY_L / KIDNEY_R / KIDNEY_TOTAL: tissue Kidney; for LIVER: tissue Liver; for A/G / ALP / ALT / AST / BUN / CRE / Ca / Cl / DBIL / GLC / IP / K / LDH / Na / PL / RALB / TBIL / TC / TG / TP / gamma-GTP: tissue Plasma
smiles,measurement,setting,value
CN(C/C=C/C#CC(C)(C)C)Cc1cccc2ccccc12 [TERBINAFINE],TERMINAL_BW,"72 h, time 3 day",243.4 g
same,APTT,"72 h, time 3 day",18.6 s
same,Bas,"72 h, time 3 day",0.8%
same,Eos,"72 h, time 3 day",0.8%
same,Fbg,"72 h, time 3 day",233.4 mg/dL
same,Hb,"72 h, time 3 day",13.4 g/dL
same,Ht,"72 h, time 3 day",39.5%
same,Lym,"72 h, time 3 day",80.4%
same,MCH,"72 h, time 3 day",21.7 pg
same,MCHC,"72 h, time 3 day",33.7%
same,MCV,"72 h, time 3 day",64.3 fL
same,Mono,"72 h, time 3 day",2.8%
same,Neu,"72 h, time 3 day",15.4%
same,PT,"72 h, time 3 day",11.5 s
same,Plat,"72 h, time 3 day",121.6 x10_4/uL
same,RBC,"72 h, time 3 day",615.4 x10_4/ul
same,Ret,"72 h, time 3 day",6.2%
same,WBC,"72 h, time 3 day",111.7 x10_2/uL
same,KIDNEY_L,"72 h, time 3 day",1.1 g
same,KIDNEY_R,"72 h, time 3 day",1.1 g
same,KIDNEY_TOTAL,"72 h, time 3 day",2.1 g
same,LIVER,"72 h, time 3 day",12.1 g
same,A/G,"72 h, time 3 day",1.7
same,ALP,"72 h, time 3 day",854 IU/L
same,ALT,"72 h, time 3 day",35.2 IU/L
same,AST,"72 h, time 3 day",67.2 IU/L
same,BUN,"72 h, time 3 day",14.2 mg/dL
same,CRE,"72 h, time 3 day",0.4 mg/dL
same,Ca,"72 h, time 3 day",10.8 mg/dL
same,Cl,"72 h, time 3 day",103.6 meq/L
same,DBIL,"72 h, time 3 day",0.1 mg/dL
same,GLC,"72 h, time 3 day",190.8 mg/dL
same,IP,"72 h, time 3 day",7.3 mg/dL
same,K,"72 h, time 3 day",4.2 meq/L
same,LDH,"72 h, time 3 day",214.6 IU/L
same,Na,"72 h, time 3 day",141.2 meq/L
same,PL,"72 h, time 3 day",156 mg/dL
same,RALB,"72 h, time 3 day",3.6 g/dL
same,TBIL,"72 h, time 3 day",0.2 mg/dL
same,TC,"72 h, time 3 day",80.6 mg/dL
same,TG,"72 h, time 3 day",113.4 mg/dL
same,TP,"72 h, time 3 day",5.7 g/dL
same,gamma-GTP,"72 h, time 3 day",2 IU/L
same,TERMINAL_BW,"[…], time 7 day",274.5 g
same,TERMINAL_BW,"[…], time 14 day",333.7 g
same,TERMINAL_BW,"[…], time 28 day",399 g
same,APTT,"[…], time 7 day",19.2 s
same,Bas,"[…], time 7 day",1%
same,Eos,"[…], time 7 day",0.6%
same,Fbg,"[…], time 7 day",226 mg/dL
same,Hb,"[…], time 7 day",13.9 g/dL
same,Ht,"[…], time 7 day",40.6%
same,Lym,"[…], time 7 day",83%
same,MCH,"[…], time 7 day",21.7 pg
same,MCHC,"[…], time 7 day",34.3%
same,MCV,"[…], time 7 day",63.5 fL
same,Mono,"[…], time 7 day",2.4%
same,Neu,"[…], time 7 day",13.2%
same,PT,"[…], time 7 day",11.9 s
same,Plat,"[…], time 7 day",130.9 x10_4/uL
same,RBC,"[…], time 7 day",640.8 x10_4/ul
same,Ret,"[…], time 7 day",5.2%
same,WBC,"[…], time 7 day",112.5 x10_2/uL
same,APTT,"[…], time 14 day",20.1 s
same,Bas,"[…], time 14 day",1%
same,Eos,"[…], time 14 day",1%
same,Fbg,"[…], time 14 day",219.4 mg/dL
same,Hb,"[…], time 14 day",14.6 g/dL
same,Ht,"[…], time 14 day",42.7%
same,Lym,"[…], time 14 day",79.8%
same,MCH,"[…], time 14 day",20.6 pg
same,MCHC,"[…], time 14 day",34%
same,MCV,"[…], time 14 day",60.4 fL
same,Mono,"[…], time 14 day",2.6%
same,Neu,"[…], time 14 day",15.4%
same,PT,"[…], time 14 day",11.3 s
same,Plat,"[…], time 14 day",129 x10_4/uL
same,RBC,"[…], time 14 day",707.4 x10_4/ul
same,Ret,"[…], time 14 day",4%
same,WBC,"[…], time 14 day",118.9 x10_2/uL
same,APTT,"[…], time 28 day",21.8 s
same,Bas,"[…], time 28 day",0.8%
same,Eos,"[…], time 28 day",1%
same,Fbg,"[…], time 28 day",210.8 mg/dL
same,Hb,"[…], time 28 day",15 g/dL
same,Ht,"[…], time 28 day",42.9%
same,Lym,"[…], time 28 day",80.6%
same,MCH,"[…], time 28 day",19.7 pg
same,MCHC,"[…], time 28 day",34.8%
same,MCV,"[…], time 28 day",56.7 fL
same,Mono,"[…], time 28 day",2.2%
same,Neu,"[…], time 28 day",15%
same,PT,"[…], time 28 day",12.2 s
same,Plat,"[…], time 28 day",114.8 x10_4/uL
same,RBC,"[…], time 28 day",758.2 x10_4/ul
same,Ret,"[…], time 28 day",2.7%
same,WBC,"[…], time 28 day",135.9 x10_2/uL
same,KIDNEY_L,"[…], time 7 day",1.2 g
same,KIDNEY_R,"[…], time 7 day",1.2 g
same,KIDNEY_TOTAL,"[…], time 7 day",2.4 g
same,KIDNEY_L,"[…], time 14 day",1.3 g
same,KIDNEY_R,"[…], time 14 day",1.3 g
same,KIDNEY_TOTAL,"[…], time 14 day",2.5 g
same,KIDNEY_L,"[…], time 28 day",1.5 g
same,KIDNEY_R,"[…], time 28 day",1.6 g
same,KIDNEY_TOTAL,"[…], time 28 day",3.1 g
same,LIVER,"[…], time 7 day",13.1 g
same,LIVER,"[…], time 14 day",15.1 g
same,LIVER,"[…], time 28 day",17.5 g
same,A/G,"[…], time 7 day",1.6
same,ALP,"[…], time 7 day",944.6 IU/L
same,ALT,"[…], time 7 day",36.6 IU/L
same,AST,"[…], time 7 day",72.8 IU/L
same,BUN,"[…], time 7 day",16.2 mg/dL
same,CRE,"[…], time 7 day",0.4 mg/dL
same,Ca,"[…], time 7 day",10.6 mg/dL
same,Cl,"[…], time 7 day",103.8 meq/L
same,DBIL,"[…], time 7 day",0.1 mg/dL
same,GLC,"[…], time 7 day",188.2 mg/dL
same,IP,"[…], time 7 day",7.1 mg/dL
same,K,"[…], time 7 day",4.4 meq/L
same,LDH,"[…], time 7 day",217.6 IU/L
same,Na,"[…], time 7 day",142 meq/L
same,PL,"[…], time 7 day",152.8 mg/dL
same,RALB,"[…], time 7 day",3.6 g/dL
same,TBIL,"[…], time 7 day",0.2 mg/dL
same,TC,"[…], time 7 day",76.2 mg/dL
same,TG,"[…], time 7 day",112.8 mg/dL
same,TP,"[…], time 7 day",5.8 g/dL
same,gamma-GTP,"[…], time 7 day",1 IU/L
same,A/G,"[…], time 14 day",1.5
same,ALP,"[…], time 14 day",875.8 IU/L
same,ALT,"[…], time 14 day",36.8 IU/L
same,AST,"[…], time 14 day",71.4 IU/L
same,BUN,"[…], time 14 day",17.6 mg/dL
same,CRE,"[…], time 14 day",0.4 mg/dL
same,Ca,"[…], time 14 day",10.8 mg/dL
same,Cl,"[…], time 14 day",103.8 meq/L
same,DBIL,"[…], time 14 day",0.1 mg/dL
same,GLC,"[…], time 14 day",206.6 mg/dL
same,IP,"[…], time 14 day",7.2 mg/dL
same,K,"[…], time 14 day",3.8 meq/L
same,LDH,"[…], time 14 day",168.2 IU/L
same,Na,"[…], time 14 day",142.4 meq/L
same,PL,"[…], time 14 day",140.4 mg/dL
same,RALB,"[…], time 14 day",3.5 g/dL
same,TBIL,"[…], time 14 day",0.2 mg/dL
same,TC,"[…], time 14 day",65.4 mg/dL
same,TG,"[…], time 14 day",123 mg/dL
same,TP,"[…], time 14 day",5.9 g/dL
same,gamma-GTP,"[…], time 14 day",0.8 IU/L
same,A/G,"[…], time 28 day",1.3
same,ALP,"[…], time 28 day",602 IU/L
same,ALT,"[…], time 28 day",41.4 IU/L
same,AST,"[…], time 28 day",76.2 IU/L
same,BUN,"[…], time 28 day",17.2 mg/dL
same,CRE,"[…], time 28 day",0.5 mg/dL
same,Ca,"[…], time 28 day",10.3 mg/dL
same,Cl,"[…], time 28 day",104.4 meq/L
same,DBIL,"[…], time 28 day",0.086 mg/dL
same,GLC,"[…], time 28 day",223.4 mg/dL
same,IP,"[…], time 28 day",7.2 mg/dL
same,K,"[…], time 28 day",4.1 meq/L
same,LDH,"[…], time 28 day",230.6 IU/L
same,Na,"[…], time 28 day",141 meq/L
same,PL,"[…], time 28 day",127.2 mg/dL
same,RALB,"[…], time 28 day",3.4 g/dL
same,TBIL,"[…], time 28 day",0.2 mg/dL
same,TC,"[…], time 28 day",64.8 mg/dL
same,TG,"[…], time 28 day",87.4 mg/dL
same,TP,"[…], time 28 day",6.1 g/dL
same,gamma-GTP,"[…], time 28 day",1.2 IU/L
